This is an account of results in patent publication US20240368115A1, “REGULATOR CONTAINING TRICYCLIC DERIVATIVE, PREPARATION METHOD THEREFOR AND APPLICATION THEREOF” (SHUJING BIOPHARMA CO., LTD, priority 2021, published 2024).

The IC50 is the concentration at which inhibition is half-maximal. For orientation: EC50 means the concentration that produces a half-maximal response. Low readings indicate greater potency, high ones weaker potency. A word on the half-life: it is how long it takes for the measured level to halve. A word on the AUC(0-inf): it is the area under the concentration-time curve extrapolated to infinity. One may read the Cmax as the peak of the concentration-time curve.

The target of one data set is 5-HT2B receptor (Homo sapiens, UniProt P41595). The experiment in a line: Calcium flux test for 5-HT2B receptor. The format is cell-based. The following applies: HEK293 cell strain stably expressing 5-HT2B receptor. The text has this:
• Fluo-4 calcium flux detection kit was purchased from Invitrogen; an HEK293 cell strain stably expressing 5-HT2B receptor was purchased from GenScript; serotonin was purchased from Sigma; methiothepin was purchased from Targetmol; polylysine-coated 384-well plates and 384-well compound plates were purchased from Greiner Bio-One. Molecular Device FLIPR, Agilent Bravo liquid workstation, and Countstar BioTech cell counter.
• (1) The cultured cells were digested with trypsin, and the cell suspension was taken after the digestion was terminated. The cryopreserved cells were rapidly thawed in a water bath at 37° C., and the cells were resuspended in a plating medium. […] The pellet was resuspended in an appropriate amount of plating medium, 20 μL of cell suspension was counted using a cell counter, and the cell density was diluted to 1×10^6 cells/mL. • (2) 20 μL of cell suspension was added to a polylysine-coated 384-well plate (2×10^4 cells/well). • (3) The cell plate was incubated in a 37° C./5% CO2 incubator for 16-20 h.
• (1) The cell plate was taken out from the incubator and centrifuged at 100×g to remove the medium. […] The cell plate and agonist positive compound plate were placed into the FLIPR instrument, the detection program was run, 10 μL of the diluted compound was transferred from the agonist compound plate to the cell plate, and the fluorescence signal was read. […]
(A change in cytosolic calcium serves as a functional read-out for many receptors and channels.)

Another data set deals with T1, D2L receptor (Homo sapiens, UniProt P14416).
T1 construct: expressed in transfected cells
T1 sequence (P14416 whole entry): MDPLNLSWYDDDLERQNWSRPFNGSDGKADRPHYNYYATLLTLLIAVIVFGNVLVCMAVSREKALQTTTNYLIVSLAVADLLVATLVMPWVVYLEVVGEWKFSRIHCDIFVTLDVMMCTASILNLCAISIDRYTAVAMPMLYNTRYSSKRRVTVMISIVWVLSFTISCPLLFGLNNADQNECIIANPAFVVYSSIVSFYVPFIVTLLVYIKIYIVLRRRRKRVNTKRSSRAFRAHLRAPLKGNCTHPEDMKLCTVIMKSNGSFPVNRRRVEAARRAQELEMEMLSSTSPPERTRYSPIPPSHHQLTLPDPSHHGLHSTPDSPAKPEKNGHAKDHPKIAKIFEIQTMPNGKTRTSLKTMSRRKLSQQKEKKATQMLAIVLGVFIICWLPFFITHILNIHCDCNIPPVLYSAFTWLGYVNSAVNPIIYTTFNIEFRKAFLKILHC
The experiment in a line: D2L receptor cAMP agonist test. The format is cell-based. The following applies: HEK293 cell strain stably expressing D2L receptor.

A short description of data set [1]: Pharmacokinetic test in mice. The format is in vivo. The following applies: male, ICR, mouse, plasma, po, 5 mg/kg, oral intragastric, single dose 5 mg/kg. An outline of the steps: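 Male ICR mice, fasted overnight, received a single oral gavage in 5% DMSO/95% of 20% aqueous cyclodextrin. Fundus-vein plasma was sampled from 0 to 24 h (3 time points per mouse) and assayed by LC-MS/MS. PK parameters came from non-compartmental analysis using the linear log-trapezoidal method.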

Sequence of 5-HT2B receptor (P41595 whole entry): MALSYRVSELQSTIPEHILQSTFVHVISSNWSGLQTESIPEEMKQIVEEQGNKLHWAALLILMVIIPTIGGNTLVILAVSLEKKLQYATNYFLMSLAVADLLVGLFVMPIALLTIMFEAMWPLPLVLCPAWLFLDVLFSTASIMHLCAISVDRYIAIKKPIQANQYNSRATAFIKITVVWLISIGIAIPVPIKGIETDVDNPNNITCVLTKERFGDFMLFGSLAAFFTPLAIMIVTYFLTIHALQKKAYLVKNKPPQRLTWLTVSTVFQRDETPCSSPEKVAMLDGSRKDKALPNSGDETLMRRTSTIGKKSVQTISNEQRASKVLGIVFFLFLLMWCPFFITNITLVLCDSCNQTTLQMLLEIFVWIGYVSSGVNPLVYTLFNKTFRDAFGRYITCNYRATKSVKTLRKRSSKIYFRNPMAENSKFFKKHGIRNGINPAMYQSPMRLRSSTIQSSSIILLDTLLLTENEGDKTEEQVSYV

Turning to `O=C1Nc2cc(OCCCCN3CCN(c4cccc(Cl)c4Cl)CC3)ccc2C2CC12` (stereo not shown) [Example 1, 5-(4-(4-(2,3-Dichlorophenyl)piperazin-1-yl)butoxy)-3,7b-dihydro-1H-cyclopropa[c]quinolin-2(1aH)-one], the IC50 on 5-HT2B receptor (calcium flux, antagonism of serotonin) was found to be 658 nM. Further, the “5-HT2B Max Inh %” value at 5-HT2B receptor (positive control methiothepin 10^−5 M) turned out to be 105.8%. In addition, the EC50 at D2L receptor (cAMP, forskolin 0.5 μM) is 0.62 nM. The “D2L Max Act %” value on D2L receptor (positive control dopamine 1 μM) was 54.4%. This compound gave a half-life in data set [1] of 10.8 h. The AUC(0-inf) in data set [1] (read-out: AUC(0-inf)) stood at 7160 ng·h/mL. For the same compound, the highest concentration (Cmax) in data set [1] (read-out: Cmax) worked out at 511 ng/mL.
